Consider 3 sequences from patent publication US8822182B2, “Chimeric antigen-specific T cell-activating polypeptides” (Mayo Foundation for Medical Education and Research, priority 2001, dated 2014).

For test [1], the system named is TAP deficient RMA-S targets. Format: cell-based, mouse. The note with it: ConA-activated CTL, 10 μM overnight.
In the next test the test system is C57BL6 mice. The format is in vivo, mouse. As to conditions: 40 μg immunogen in IFA plus CpG adjuvant; spleen cells restimulated 7 days with peptide epitope; RMA-S targets, FIGS. 11A-11C.
For test [2], the system named is TAP-expressing 221.A2 target cells. Format: cell-based, human.
The subject of test [3] is TAP-deficient T2 target cells. The format is cell-based, human.
The test system of test [4] is TAP-competent cells expressing H-2K^b (L-K^b). In words: Immunofluorescence and confocal microscopy of H-2K^b/OVA257 complexes, TAP-competent cells. The format is cell-based, mouse. The note with it: 25D1.16 staining. On the procedure:
(§1) T2/K^b or L-K^b cells were cultured overnight on poly-lysine treated glass coverslips. The culture medium was discarded, and the cells were gently washed with PBS. The cells were pre-incubated with serum-free AIM-V medium at 37° C. for 30 minutes and then incubated with peptide/TA solutions at the indicated concentrations for 12 hour at 37° C. After peptide loading, the cells were washed and fixed with 2% formaldehyde for 20 minutes at room temperature. For indirect immunofluorescence, fixed cell monolayers were permeabilized with 0.2% Triton X100 in PBS and incubated with PBS containing 5% goat serum to block non-specific protein binding sites. The cells were double-labeled with mouse monoclonal antibody 25D1.16 specific to OVA257/H-2K^b complex and rabbit polyclonal antibody TGN38 (TGN marker) or rabbit anti-calreticulin (ER marker), followed by 1 hour staining with FITC anti-mIgG and TR anti-rIgG as secondary antibodies. After washing, the coverslips were mounted for observation on glass slides using the Prolong Antifade Kit. The stained cells were examined and photographed with a Leica TCS-SL confocal laser-scanning microscope (Bensheim, Germany).
Utilizing the monoclonal antibody 25D1.16 that specifically reacts with H-2K^b/OVA257 complexes and confocal microscopy, the formation and presence of this CTL epitope in permeabilized TAP-competent and TAP-deficient cells expressing H-2K^b was evaluated. […] These cells were also stained with an antibody specific for calreticulin which is localized within the ER.

Test [5] concerns TAP-deficient cells (T2/K^b). In words: Immunofluorescence and confocal microscopy of H-2K^b/OVA257 complexes, T2/K^b cells. The format is cell-based, human. How it is done: as §1
An antibody specific for trans-Golgi network (TGN38) was used to test whether H-2K^b/OVA257 complexes could also be detected in the trans-Golgi network of cells incubated with TA peptides. […] In these cells, antibody TGN38 stained brightly a structure corresponding to the trans-Golgi. […] These observations reinforce the findings that TA peptides need to penetrate cells in order to create MHC class I/peptide complexes. In addition, these complexes are observed in both the ER and trans-Golgi, even in TAP-deficient cells.

The test system of another test is TAP-competent EL-4 cells. In words: Flow cytometry of surface H-2K^b/OVA257 complexes (25D1.16) with protease inhibitors, EL-4 cells. Format: cell-based, mouse. The note with it: decRVKR-CMK 60 μM, antigen 10 μM overnight, FIGS. 8A-8C. How it is done:
(§2) The effects of protease inhibitors on antigen processing and presentation were evaluated by analysis of 25D1.16 staining on different antigen-pulsed EL-4 or T2/K^b cells using flow cytometric analysis. In brief, EL-4 or T2/K^b cells were washed twice with serum-free AIM-V medium (Life Technologies, Rockville, Md.), pre-treated with protease inhibitors (10 μM lactacycstin, 100 μM pepstatin or 60 μM decRVKR-CMK) for 30 minutes and then pulsed with equimolar concentrations of different (as indicated) peptides at 37° C. overnight with the continuous presence of the corresponding protease inhibitors. The serum-free AIM-V medium was used in order to exclude the potential involvement of serum proteases during the peptide-pulsing process. After washing the cells twice with FACS buffer (PBS (phosphate buffered saline) supplemented with 2% FBS and 0.2% sodium azide), peptide-loaded APC were stained with 25D1.16 antibody followed by FITC anti-mIgG for flow analysis. Untreated EL-4 and T2/K^b cells were pulsed with peptides and stained as controls.
For orientation: In flow cytometry, cells or beads pass a laser one at a time.

The subject of test [6] is TAP-deficient T2/K^b cells. In words: Flow cytometry of surface H-2K^b/OVA257 complexes (25D1.16) with protease inhibitors, T2/K^b cells. Format: cell-based, human. As to conditions: decRVKR-CMK 60 μM, antigen 10 μM overnight, FIGS. 8D-8F. How it is done: as §2
The data described above indicate that TA can be processed in various cellular compartments to produce small peptide epitopes that subsequently associate with MHC class I molecules and the resulting peptide-MHC class I complexes are then transported to the cell surface. Antigen processing could take place: (1) in the cytoplasm, via proteasomal degradation followed by TAP transport; (2) within the ER, where peptide trimming via an aminopeptidase could occur; (3) in the trans-Golgi, where processing of antigens through proteases such as furin can occur; and/or (4) in early endocytic compartments, where peptides that could either bind to recycling MHC class I molecules or leak into other compartments of the MHC class I pathway can be generated. Utilizing antibody 25D1.16, we studied the effects of various inhibitors of antigen processing in the formation of H-2K^b/OVA257 surface complexes by peptides OVA257-HIVtat and HIVtat-OVA257.

For another test, the system named is RMA-S cells. In words: Flow cytometry of surface H-2K^b/OVA257 complexes on RMA-S cells with or without furin inhibitor. The format is cell-based. The note with it: 18 hours, 25D1.16 antibody, FIG. 13. How it is done: Aliquots of RMA-S cells were cultured without or with the furin inhibitor decRVKR-CMK (60 μM) at 37° C. After one hour of culture, 4 multiple epitope-containing TA (TA3-A, TA3-B, TA3-C, and TA3-D) or OVA257 were each added to separate cultures, which were then incubated for a further 18 hours. The cells were then harvested and the relative amounts of H-2K^b/OVA257 complexes expressed on the surfaces of the cells were assessed by fluorescence flow cytometry using the 25D1.16 antibody (FIG. 13). […] These findings underscore the importance of furin in processing of antigens to generate peptide epitopes that bind to MHC class I molecules and are then recognized by appropriate peptide epitope-specific CTL.

The test system of test [7] is Murine dendritic cells (DC). In words: Persistence in dendritic cells: IFN-γ ELISA of OT-1 CTL cultured with pulsed DC. Format: cell-based, mouse. The note with it: DC pulsed 10 μM 2 hours, washed, further 48 hours, CTL:DC 10:1 for 24 hours, FIG. 14. How it is done: Murine dendritic cells (DC) were prepared by culturing C57BL6 mouse (H-2^b) bone marrow […] in the presence of granulocyte macrophage colony stimulating factor (GM-CSF) and interleukin-4 (IL-4) by a method essentially the same as that described by Son et al. [(2002) J. Immunol. Meth. 262:145-157] except that non-adherent cells are removed from the cultures and discarded on day 2 of culture and no density gradient centrifugation step was used. Cells not adhering to the plastic tissue culture vessel at day 6 of culture were harvested and used as DC.
DC were pulsed with either the TA HIVtat-OVA257 (see Table 2) or the peptide epitope OVA257, each at a concentration of 10 μM, for 2 hours at 37° C. The cells were then washed free of the TA or peptide epitope and incubated for a further 48 hours. They were then cultured with cells of the OT-1 CTL clone (specific for H-2K^b/OVA257) at a CTL to DC ratio of 10:1 for 24 hours. Supernatants were then removed from the cultures and the relative amounts of IFN-γ in various dilutions of each supernatant were measured by ELISA (FIG. 14). […] These findings indicate that a peptide epitope persists in DC for a longer period of time when taken up by DC in the form of a TA than when taken up by DC in the form of the peptide epitope per se.

As for “IKAVYNFATCGRVKRSIYRYYGLRVKRSIINFEKLAAARKKRRQRRR [TA3-A]”, in test [1] (FIG. 9 left panel), the “sensitization of targets for killing by OVA257-specific CTL” value is given as “could effectively kill targets sensitized”. For the same sequence, the “sensitization of targets for killing by 2C-specific CTL” value in [1] (FIG. 9 middle panel) is reported as “could effectively kill targets sensitized”. In the test on C57BL6 mice, the “induction of CTL responses by in vivo vaccination” value is “at least as effective as the peptide mixture”.

Consider “RQIKIWFPNRRMKWKKAEIDLIMDQVPFSVLRTED [AntpHD-gp100209]”, for which the “sensitization of targets for lysis by gp100209-specific CTL clone” value in [2] was “efficiently sensitized”. Also, in [3], the “effect of brefeldin-A (BFA) on sensitization of T2 cells” value is reported as “effective in blocking” and the “sensitization of targets for lysis by gp100209-specific CTL clone” value is “efficiently sensitized”.

As for SIINFEKL [OVA257, reference compound], the “presence of H-2K^b/OVA257 complexes in permeabilized cells” value in test [4] is given as “abundant”. For the same sequence, the “location of H-2K^b/OVA257 complexes on the cell-surface” value in [5] (25D1.16 staining) is “most of the H-2K^b/OVA257 complexes were on the cell-surface”. Moreover, the “localization of H-2K^b/OVA257 complexes to the trans-Golgi” value in test [5] (25D1.16 superimposed with TGN38 staining) was “no localization to the trans-Golgi”. Also, the “effect of furin inhibitor decRVKR-CMK on expression of surface H-2K^b/OVA257 complexes (decrease)” value (with TAP-competent EL-4 cells; in test [6]) was “no effect was observed” throughout. In addition, the “cell-surface H-2K^b/OVA257 complexes after exposure of cells” value in the test on RMA-S cells is on record as “detectable levels”. Also, the “IFN-γ produced by OT-1 CTL cultured with pulsed DC” value in [7] is on record as “insignificant levels of IFN-γ”.
